Results on five compounds are retold here after patent US9296778B2, “3′,5′-cyclic phosphate prodrugs for HCV infection” (Idenix Pharmaceuticals, Inc., priority 2012, dated 2016).

Data set [1] is described as follows: Stability in simulated intestinal fluid. The data set is classed as in vitro ADME. The settings on record: 100 μM, 2 hours at 37° C., percent of the peak area at time zero. As for the experimental part: Simulated gastric and intestinal fluids containing pepsin and pancreatin respectively were prepared according to the U.S. Pharmacopoeia USP291 procedure (www.pharmacopeia.cn/v29240/usp29nf24s0_ris1s126.html). Compounds (final concentration 100 μM) were incubated in duplicate in the appropriate fluid for 2 hours at 37° C. The samples were quenched with 200 μl cold acetonitrile, vortexed for 30 seconds and then centrifuged at 16,100 g for 10 min. The supernatants were analyzed by HPLC on a C-18 column with UV detection at 252 nm. The time 0 samples were prepared by adding SGF or SIF fluid to the quenching solvent followed by the test compound. Stability of the compounds was determined by peak area of the test compounds after incubation and calculated as percent of the peak area observed at time zero.

In another data set the test system is HCV genotype 1b replicon. Briefly: HCV Replicon Assay. The data set is classed as cell-based. The settings on record: Zluc cells (Huh-7-derived, HCV genotype 1b replicon, luciferase reporter), 72 hours, read-out: HCV Replicon EC50. The method, then:
Huh-7-derived cell line (Zluc) that harbors an HCV genotype 1b replicon and a luciferase reporter gene was grown in Dulbecco's Modified Eagle Medium (DMEM) supplemented with 10% fetal bovine serum, 2 mM GlutaMAX, 1% MEM nonessential amino acids, 100 IU/mL penicillin, 100 μg/mL streptomycin, and 0.5 mg/mL Geneticin® (G418). For dose response testing the cells were seeded in 96-well plates at 7.5×10^3 cells per well in a volume of 50 μL, and incubated at 37° C./5% CO2. Drug solutions were made up freshly in Huh-7 media as 2× stocks. Ten additional 5-fold dilutions were prepared from these stocks in DMEM without G418. At least three hours after Zluc cells were seeded, drug treatment was initiated by adding 50 μL of drug dilutions to the plates in duplicate. Final concentrations of drug ranged from 100 μM to […]. Cells were then incubated at 37° C./5% CO2. Alternatively, compounds were tested at two concentrations (1 μM and 10 μM). […] For this, media was removed from the plates via gentle tapping. Fifty microliters of ONE-glo luciferase assay reagent was added to each well. The plates were shaken gently for 3 min at room temperature and luminescence was measured on a Victor^3 V 1420 multilabel counter (Perkin Elmer) with a 1 second read time using a 700 nm cut-off filter. The EC50 values were calculated from dose response curves from the resulting best-fit equations determined by Microsoft Excel and XLfit 4.1 software. When screening at two fixed concentrations, the results were expressed as % inhibition at 1 μM and 10 μM.
For orientation: In antiviral work, replicon cells carry a viral genome segment that copies itself.

A short description of another data set: in vitro. The settings on record: human, HCV Replicon CC50, Zluc cells, CellTiter-Blue.
Data set [2] is described as follows: Stability in fresh human whole blood. The data set is classed as in vitro ADME. The settings on record: 0.5 μM, percent unchanged test compound. The method, then: (§1) Stability of compounds were determined in fresh human whole blood with K2EDTA as the anticoagulant (stored refrigerated at 2-8° C. and used within 7 days of receipt). The experiment was conducted with three replicates for each time point. Whole blood, pre-incubated at 37° C. for 10-15 minutes, was fortified with a solution of test compound for a final concentration of 0.5 μM and mixed for 30 sec. At intervals (0, 0.5, 1 and 2 hr), three 50 μL aliquots were combined with 200 μL (each) of an ice-cold solution of the internal standard (carbutamide 500 ng/mL in acetonitrile). The samples were vortexed for 30 sec and then centrifuged at 16,100 g for 5 min. The supernatant was analyzed by LC-MS/MS. The MS peak area ratio of the test compounds versus the internal standard was calculated and percent unchanged test compound was calculated for each time point using this ratio.

Another data set has as its system fresh human hepatocytes. Briefly: Release of active metabolite in fresh human hepatocytes. It is filed as in vitro ADME. The settings on record: 10 μM compound; for FHH TP Cmax: fresh human hepatocytes; for FHH TP AUC: fresh human hepatocytes, 6, 24 and 48 hours. The method, then:
(§2) Plates of fresh human and mouse hepatocytes were obtained on ice. The medium was removed and replaced with hepatocyte culture medium (William's E supplemented with penicillin-streptomycin, 1% L-glutamine, 1% insulin-transferrin-selenium and 0.1 μM Dexamethasone (Invitrogen) or with Invitro GRO HI medium complemented with Torpedo antibiotics (Celsis)). Cells were left overnight in an incubator at 37° C. to acclimatize to culture and the medium.
(§3) Hepatocyte incubations were conducted at a final volume of 0.5 mL hepatocyte culture medium/well (0.8 million cells/well for human and 0.5 million cells/well for mouse; 12 well plate no overlay, collagen coat). Culture medium from overnight incubation of cells was removed and replaced with fresh medium, pre-warmed to 37° C., containing 10 μM of test compound from a stock solution in DMSO (final DMSO concentration was 0.1%). At each specific time point, incubation medium was removed and cell monolayers were carefully washed two times with ice-cold PBS. Following the last wash, all PBS was carefully removed and 1.0 mL of extraction solution (ice-cold 70% methanol/30% water) added. Cells were scraped off and suspended in the extraction solution, transferred to 2 mL polypropylene microfuge tubes and intracellular contents extracted overnight at −20° C.
(§4) After the overnight treatment the cellular extracts were prepared by centrifugation at 16,000×g for 10 min to remove cellular debris. The remaining sample was then dried using a refrigerated centrivap concentrator. Dry extracts were reconstituted in 1000 μL of HPLC-grade water and centrifuged at 16,000×g for 10 min. Aliquots (100 μL each) of the supernatant were transferred into a 96 well plate and internal standard (4 ng/mL final concentration) was added as the internal standard (IS) for LC-MS/MS analysis.
(§5) The incubation time points were 6, 24 and 48 hours for human hepatocytes and 1, 4, 8, 12 and 24 hours for mouse hepatocytes.

The nature of data set [3]: Liver pharmacokinetics following a single oral dose in CD-1 mice. It is filed as in vivo. The settings on record: single oral dose 25 mg/kg in PEG 200, CD-1 male mice; given at 1 μmol/kg; 25 mg/kg. As for the experimental part:
(§6) A single oral dose of test compound at 25 mg/kg in PEG 200 (dose volume 5 mL/kg) was administered to nine CD-1 male mice. Five untreated animals were used for the collection of control plasma and liver. Terminal plasma and liver samples were collected from three animals per time point at 4, 12 and 24 hours post dose. Liver specimens were collected from all animals immediately after the incision. Freezing forceps stored in liquid nitrogen were used to freeze the liver before excision.
Liver samples were analyzed for the active species 2′-methylguanosine triphosphate (2′-MeGTP) by LC-MS/MS. 2′-MeGTP levels were assayed by homogenizing (on ice) a known weight of mouse liver with 4× volume of 0.95 M trichloroacetic acid (TCA). Internal standard solution was added to the homogenate followed by neutralization with 20% ammonium hydroxide solution and addition of 500 μL 1% formic acid. The tissue samples were extracted by weak anion exchange solid phase extraction (SPE). Post extraction, the eluates were evaporated under nitrogen, followed by reconstitution before injection onto the LC-MS/MS system. The samples were chromatographed on a Luna NH2 column using a gradient system of ammonium acetate (1 mM to 20 mM and pH 8.0 to pH 10.0) in water and acetonitrile (70:30). The analyte was detected and quantified by tandem mass spectrometry in positive ion mode on an API4000 equipped with a Turbo Ionspray® interface. The calibration range was 10 to 10000 pmol/mL in mouse liver homogenate (50 to 50000 pmol/g of mouse liver).

Data set [4] can be described thus: Plasma pharmacokinetics following a single oral dose in CD-1 mice. It is filed as in vivo. As to conditions: single oral dose 25 mg/kg in PEG 200, CD-1 male mice; given at 1 μmol/kg; 25 mg/kg. The method, then:
as §6
Plasma samples were analyzed for 2′-methylguanosine (2′-MeG) by LC-MS/MS. The internal standard (IS) was 2′-MeG-D3. For protein precipitation and extraction, each plasma sample (50 μL) was treated with 500 μL of 0.2% formic acid in acetonitrile and 20 μL of the internal standard working solution. After vortexing and centrifugation, 500 μL of the sample extracts were transferred to a new plate, dried under N2 at ˜28° C. and reconstituted with 75 μL of 0.2% FA in water. The extracts were chromatographed on an Aquasil C18 column using a gradient system of 0.2% formic acid in water and acetonitrile. The analytes were detected and quantified by tandem mass spectrometry in positive ion mode on an MDS Sciex API5000 equipped with a Turbo Ionspray® interface. The calibration range was 0.500 (LLOQ) to 200 ng/mL in mouse plasma.

A short description of a further data set: Stability in mouse blood. The settings on record: on ice, percent unchanged test compound. The data set is classed as in vitro ADME. As for the experimental part: as §1
The stability in mouse blood was determined on ice at 0, 0.5 and 1 hr as herein.

Another data set relates to Zluc cells. As to the kind of experiment: cytotoxicity evaluation (CellTiter-Blue Cell Viability Assay). The settings on record: read-out: HCV Replicon CC50; Zluc cells, CellTiter-Blue.
In another data set the test system is mouse hepatocytes. Briefly: Release of active metabolite in mouse hepatocytes. The data set is classed as in vitro ADME. The settings on record: 10 μM compound; for MsH Cmax: mouse hepatocytes; for MsH AUC: mouse hepatocytes, 1, 4, 8, 12 and 24 hours. As for the experimental part: as §2, §3, §4, §5

The structures appear in SMILES notation. Read-outs that look alike come from different tables or passages of the source. Bounds are passed on as bounds.

A word on the EC50: it is the concentration that produces a half-maximal response. Usually CC50 stands for the concentration at which the toxic effect on the cells reaches its halfway point. Consider `CCOc1nc(N)nc2c1ncn2[C@@H]1O[C@@H]2COP(=O)(OCCCC(=O)OC(C)C)O[C@H]2[C@@]1(C)O` (single isomer, unassigned) [Compound 1 Diastereomer 1], for which the “Stability SIF” value in data set [1] is given as 105%. For the same compound, the EC50 in the data set on HCV genotype 1b replicon (Hepatitis C virus, 72 h) lay within 0.25 to 1 µM. This compound showed a CC50 in “in vitro” of more than 50 µM. Further, the “Stability WB_Human (37° C.; 2 hr)” value in data set [2] was 73%. In the data set with fresh human hepatocytes, the “FHH TP Cmax” value was 85 pmol/mill cells and the “FHH TP AUC” value was determined as 3425 pmol · hr/mill cells. Further, the “Ms Liver 2′-MeGTP AUC” value in data set [3] is given as 560 pmol · hr/g at 1 μmol/kg. For the same compound, in data set [4], the “Ms Plasma 2′-MeG AUC” value was found to be 9 pmol · hr/mL at 1 μmol/kg and the “Ms Plasma 2′-MeG Cmax” value was determined as 0.56 pmol/mL at 1 μmol/kg. In addition, in the data set “Stability in mouse blood”, the “Stability WB_Mouse (ice; 1 hr)” value worked out at 79%.

Turning to `CCOc1nc(N)nc2c1ncn2[C@@H]1O[C@@H]2COP(=O)(OCCCC(=O)OC(C)C)O[C@H]2[C@@]1(C)O` (single isomer, unassigned) [Compound 1 Diastereomer 2], the CC50 in the data set on Zluc cells was less than 50 µM. Moreover, in the data set on mouse hepatocytes, the “MsH Cmax” value came to 330 pmol/mill cells and the “MsH AUC” value was determined as 8363 pmol · hr/mill cells. The “Stability SIF” value in [1] is 83%. Also, the EC50 in the data set on HCV genotype 1b replicon was less than 0.25 µM. Further, the “Stability WB_Human (37° C.; 2 hr)” value in [2] was 87%. In the data set on fresh human hepatocytes, the “FHH TP Cmax” value came to 278 pmol/mill cells and the “FHH TP AUC” value came to 10125 pmol · hr/mill cells. Besides, the “Ms Liver 2′-MeGTP AUC” value in data set [3] was 7400 pmol · hr/g at 1 μmol/kg. For the same compound, in data set [4], the “Ms Plasma 2′-MeG AUC” value was determined as 68 pmol · hr/mL at 1 μmol/kg and the “Ms Plasma 2′-MeG Cmax” value is 8.6 pmol/mL at 1 μmol/kg. Moreover, the “Stability WB_Mouse (ice; 1 hr)” value in “Stability in mouse blood” turned out to be 1%.

As for `CCOc1nc(N)nc2c1ncn2[C@@H]1O[C@@H]2COP(=O)(OCCSC(=O)C(C)(C)CO)O[C@H]2[C@@]1(C)O` (single isomer, unassigned) [Compound 4 Diastereomer 1], in the data set with mouse hepatocytes, the “MsH Cmax” value was determined as 468 pmol/mill cells and the “MsH AUC” value came out at 15078 pmol · hr/mill cells. Also, in data set [1], the “Stability SIF” value is 105%. In addition, the EC50 in the data set on HCV genotype 1b replicon (Hepatitis C virus, 72 h) was less than 0.25 µM. This compound also registered a CC50 in the data set “in vitro” of less than 50 µM. The “Stability WB_Human (37° C.; 2 hr)” value in data set [2] is 82%. Moreover, in the data set on fresh human hepatocytes, the “FHH TP Cmax” value came out at 120 pmol/mill cells and the “FHH TP AUC” value came to 4110 pmol · hr/mill cells. Further, in data set [3], the “Ms Liver 2′-MeGTP AUC” value was found to be 480 pmol · hr/g at 1 μmol/kg. For the same compound, in data set [4], the “Ms Plasma 2′-MeG AUC” value came out at 6.7 pmol · hr/mL at 1 μmol/kg and the “Ms Plasma 2′-MeG Cmax” value turned out to be 0.5 pmol/mL at 1 μmol/kg.

Consider `CC(C)OC(=O)CCCOP1(=O)OC[C@H]2O[C@@H](n3cnc4c(=O)[nH]c(N)nc43)[C@](C)(F)[C@@H]2O1` (single isomer, unassigned; diastereomer 1) [Compound 6 Diastereomer 1], for which, in the data set with Zluc cells, the CC50 was more than 50 µM. For the same compound, the “MsH AUC” value with mouse hepatocytes was “BLD^a”. Besides, the EC50 in the data set with HCV genotype 1b replicon lay in the range of 1 to 10 µM. Also, the “Ms Liver 2′-MeGTP AUC” value in data set [3] came to 35 pmol · hr/g at 1 μmol/kg. In addition, in [4], the “Ms Plasma 2′-MeG AUC” value amounted to 13 pmol · hr/mL at 1 μmol/kg and the “Ms Plasma 2′-MeG Cmax” value worked out at 1.3 pmol/mL at 1 μmol/kg.

On to `CC(C)OC(=O)CCCOP1(=O)OC[C@H]2O[C@@H](n3cnc4c(=O)[nH]c(N)nc43)[C@](C)(F)[C@@H]2O1` (single isomer, unassigned; diastereomer 2) [Compound 6 Diastereomer 2], for which, in the data set with Zluc cells, the CC50 is more than 50 µM. In addition, the “MsH AUC” value in the data set on mouse hepatocytes is recorded as “BLD^a”. The EC50 in the data set with HCV genotype 1b replicon was less than 0.25 µM. The “Ms Liver 2′-MeGTP AUC” value in data set [3] came to 530 pmol · hr/g at 1 μmol/kg. In data set [4], the “Ms Plasma 2′-MeG AUC” value is 54 pmol · hr/mL at 1 μmol/kg and the “Ms Plasma 2′-MeG Cmax” value was determined as 7.2 pmol/mL at 1 μmol/kg.
